PubChem BioAssay (NCI)
Where “and” joins values, the source holds several entries; their conditions need not be identical. Equal entries are not always repeated.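 Values below derive from 48-hour exposures of cells grown in 96-well plates, with endpoints linearly interpolated between the two concentrations bracketing the appropriate inhibition level. GI50: concentration for 50% inhibition of growth. TGI marks complete inhibition of growth.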

Experiments:
Test in all cases: DTP human tumour cell line panel, 48 h
TK-10 renal = tested on: TK-10 renal
SK-OV-3 ovarian = tested on: SK-OV-3 ovarian
HL-60(TB) leukemia = tested on: HL-60(TB) leukemia
RXF 393 renal = tested on: RXF 393 renal
SF-295 CNS = tested on: SF-295 CNS
SNB-75 CNS = tested on: SNB-75 CNS
SF-539 CNS = tested on: SF-539 CNS
MDA-MB-435 = tested on: MDA-MB-435
SK-MEL-2 melanoma = tested on: SK-MEL-2 melanoma
OVCAR-4 ovarian = tested on: OVCAR-4 ovarian

Compound	GI50 (TK-10 renal)	TGI (TK-10 renal)	GI50 (SK-OV-3 ovarian)	TGI (SK-OV-3 ovarian)	GI50 (HL-60(TB) leukemia)	TGI (HL-60(TB) leukemia)	GI50 (RXF 393 renal)	TGI (RXF 393 renal)	GI50 (SF-295 CNS)	TGI (SF-295 CNS)	GI50 (SNB-75 CNS)	TGI (SNB-75 CNS)	GI50 (SF-539 CNS)	TGI (SF-539 CNS)	GI50 (MDA-MB-435)	TGI (MDA-MB-435)	GI50 (SK-MEL-2 melanoma)	TGI (SK-MEL-2 melanoma)	GI50 (OVCAR-4 ovarian)	TGI (OVCAR-4 ovarian)
CCc1ccc([OH2+])c(C(=O)[O-])c1.CCc1ccc([OH2+])c(C(=O)[O-])c1.CCc1ccc([OH2+])c(C(=O)[O-])c1.CCc1ccc([OH2+])c(C(=O)[O-])c1.[Cu+2].[Cu+2]	> 85.8 µM	> 100 µM	23.9 µM	> 68.2 µM	2.4 µM	> 44.4 µM	> 46.8 µM	> 94.5 µM	50.8 µM	> 100 µM	40.6 µM	> 89.3 µM	> 100 µM	> 100 µM	49.3 µM	> 100 µM	> 91.3 µM	> 100 µM	28.3 µM	> 100 µM
NS(=O)(=O)c1cccc(Nc2cc(-c3ccc(F)cc3)[nH]n2)c1	20.3 µM	> 25 µM	13.2 µM	> 25 µM	> 25 µM	> 25 µM	17.8 µM	> 25 µM	> 25 µM	> 25 µM	> 15.5 µM	> 25 µM	15.1 µM	> 25 µM	> 25 µM	> 25 µM	16.1 µM	> 25 µM	> 22 µM	> 25 µM
COc1cc2c(cc1O)CCN[C@@]21CS[C@H]2c3c(OC(C)=O)c(C)c4c(c3C(COC1=O)N1C2C2NC(Cc3cc(C)c(OC)c(O)c32)[C@@H]1O)OCO4 (stereo partly specified)	0.00184 ng/mL and 4.5 ng/mL	13.1 µM and 6.24 µg/mL	4.5 ng/mL	10.9 µM and 1.47 µg/mL		> 100 µM and 8.2e-07 µg/mL	4.5 ng/mL	< 10 nM and 1.9e-07 µg/mL and 0.0045 µg/mL	4.5 ng/mL	1.09 µM and 5.17 µg/mL	4.5 ng/mL		4.5 ng/mL	< 10 nM and 0.0045 µg/mL		< 0.01 µM	4.5 ng/mL	< 10 nM and 0.0045 µg/mL	4.5 ng/mL	< 10 nM and 0.0045 µg/mL
O=C(NOCCO)c1ccc2cncn2c1Nc1ccc(I)cc1F	0.00874 µM and < 0.0129 µM	> 100 µM	> 3.15 µM and 0.791 µM	> 96.2 µM	0.00191 µM and < 0.01 µM	> 100 µM	0.188 µM and 0.303 µM	> 10 µM and 21.4 µM	> 56.5 µM	> 100 µM	> 8.85 µM and 14.3 µM	> 100 µM	> 10 µM and 12.4 µM	> 100 µM	0.00756 µM and < 0.01 µM	> 100 µM	0.00127 µM and < 0.01 µM	0.00636 µM and < 0.01 µM	> 10 µM and 4.29 µM	> 100 µM
OC[C@H]1C[C@](O)(c2ccccc2Cl)[C@@H](c2ccccc2Cl)O1	20.9 µM	64.7 µM	23.6 µM	84.4 µM	16.5 µM	38.7 µM	18.7 µM	37.9 µM	27.1 µM	94.6 µM	20.9 µM	79.9 µM	22.4 µM	50.7 µM	16.3 µM	33.3 µM			24.3 µM	99.2 µM
CC/C(=C/c1ccc(OC)cc1)[N+](=O)[O-]	1.75 µM	3.28 µM	14.4 µM	27.5 µM	1.89 µM	5.47 µM	1.85 µM	3.39 µM	11.3 µM	23.3 µM	2.83 µM	15 µM	1.82 µM	3.38 µM	1.68 µM	3.6 µM	2.02 µM	4.62 µM	3.15 µM	12.1 µM
Cc1ccc(C)c(N2CCN(c3ccncc3N)CC2)c1	16.7 µM	49.8 µM	21.9 µM	73.5 µM	15.9 µM	54.9 µM	9.31 µM	36.4 µM	11.1 µM	38.5 µM	16.6 µM	59 µM	15.4 µM	56.9 µM	14.9 µM	36.3 µM	15.6 µM	31.2 µM	19.1 µM	> 100 µM
COc1cccc(/C=C\C(=O)c2ccccc2)c1	13.7 µM	30.4 µM	15.9 µM	32.2 µM	5.98 µM	> 100 µM	2.46 µM	5.34 µM	8.45 µM	27.5 µM	8.9 µM	23 µM	10.7 µM	24.1 µM	11.9 µM	27.8 µM	18 µM	34.8 µM	10.8 µM	27 µM
CC(C)(C)n1cc(-c2ccnc(NCCCNS(=O)(=O)c3cccc4ccccc34)c2)c(-c2cccc(O)c2)n1	2.85 µM	9.73 µM	2.63 µM	7.23 µM	2.68 µM	7.26 µM	1.52 µM	3.06 µM	1.8 µM	3.52 µM	1.88 µM	5.48 µM	1.83 µM	3.52 µM	1.76 µM	3.37 µM	1.88 µM	4.06 µM	1.92 µM	4.75 µM
CC1CCc2c(C(=O)Nc3ncc(Cc4cccc([N+](=O)[O-])c4)s3)csc2C1 (stereo unspecified)	5.04 µM	> 100 µM	0.436 µM	> 100 µM	0.324 µM	3.8 µM	0.938 µM	4.02 µM	0.4 µM	> 100 µM	0.369 µM	1.66 µM	0.548 µM	1.93 µM	0.133 µM	0.45 µM	0.586 µM	> 100 µM	1.64 µM	> 100 µM
CC1OC(O[C@@H]2C=C3CC[C@@H]4[C@H](CC[C@]5(C)[C@@H](c6ccc(=O)oc6)CC[C@]45O)[C@@]3(C)CC2)C(O)C(O)C1O (stereo partly specified)		0.00939 µM and 0.006 µM			0.0015 µM and 0.00592 µM		0.00112 µM and 0.00894 µM	0.00199 µM		0.003 µM and 0.000407 µM		0.003 µM		0.000193 µM	0.000482 µM	0.013 µM		0.0243 µM		0.00224 µM and 0.00365 µM
CN(N=O)c1ccc(/C=C/c2ccnc3ccccc23)cc1		> 100 µM		> 100 µM		> 100 µM		> 100 µM		> 100 µM		> 100 µM		> 100 µM		> 100 µM		> 100 µM		> 100 µM
CN1CCN(Cc2ccc(NC(=O)c3cncc(C#Cc4c(N)ncc5ccccc45)c3)cc2C(F)(F)F)CC1	0.919 µM	1.66 µM	1.13 µM	2.01 µM	0.16 µM	0.781 µM	0.708 µM	1.39 µM	0.786 µM	1.57 µM	0.872 µM	1.61 µM	0.532 µM	1.13 µM	0.291 µM	0.968 µM	0.782 µM	1.72 µM	0.309 µM	1.1 µM
COc1ccc2c(c1O)[C@@]13CCCC=C1[C@@H](C2)N(C)CC3		> 100 µM		> 100 µM		> 100 µM		> 100 µM		> 100 µM		> 100 µM				> 100 µM		> 100 µM		> 100 µM
COc1cc(/C=N\Nc2ccccc2)ccc1OC(=O)c1ccccc1	16.5 µM	68.3 µM	45.6 µM	> 100 µM	0.544 µM	> 72.1 µM	23.2 µM	74.6 µM	1.92 µM	10.7 µM	12.8 µM	61.9 µM	0.486 µM	2.22 µM	1.25 µM	> 100 µM	2.1 µM	60 µM	8.21 µM	> 100 µM
CC[C@H](C)[C@H](NC(=O)CN(C)C)C(=O)N(C)[C@H](C[C@@H](OC(C)=O)c1nc(C(=O)NC23C4C5C2C2C3C4C52C(=O)OC)cs1)C(C)C (stereo partly specified)	9.48 µM	> 33.2 µM	4.15 µM	> 33.2 µM	0.0777 µM	0.242 µM	0.387 µM	> 33.2 µM	0.552 µM	> 33.2 µM	0.119 µM	> 33.2 µM	0.462 µM	> 14.1 µM	0.0409 µM	1.07 µM	0.838 µM	> 33.2 µM	2.81 µM	> 33.2 µM
N#Cc1cnn(C(=O)c2nn(-c3ccc(Cl)cc3)cc2O)c1N	0.267 µM	7.34 µM	0.521 µM	11.3 µM	0.354 µM	2.27 µM	0.161 µM	3.91 µM	0.163 µM	0.646 µM	0.248 µM	17.8 µM	0.323 µM	7.85 µM	0.312 µM	18.9 µM	0.908 µM	18.9 µM	0.456 µM	37.4 µM
COC(=O)c1sc(-n2cnc3cc(OC)c(OC)cc32)cc1OCc1ccccc1C(F)(F)F	11 µM	> 25 µM	> 21.5 µM	> 25 µM	> 25 µM	> 25 µM	7.45 µM	> 25 µM	> 23.6 µM	> 25 µM	9.07 µM	> 19.6 µM	> 25 µM	> 25 µM	> 25 µM	> 25 µM	> 19 µM	> 25 µM	> 25 µM	> 25 µM
O=C1OC(c2ccccc2)=N/C1=C\c1ccccc1		> 100 µM		> 100 µM		99.2 µM and 84.4 µM	> 100 µM and 43 µM	> 100 µM		> 100 µM		> 100 µM		55.2 µM and 40.8 µM		> 100 µM		46.8 µM		> 100 µM
Nc1nc(SCC#CCCl)c2[nH]cnc2n1	1.87 µM	11.1 µM	7.56 µM	27.6 µM	2.08 µM	6.61 µM	3.05 µM	14.9 µM	3.65 µM	17.1 µM	4.23 µM	17.5 µM	3.61 µM	15.4 µM	3.81 µM	18.6 µM	4.92 µM	23.3 µM	4.32 µM	67.4 µM
COc1cc(/C=N/NC(=O)c2cnn3c2NC(c2ccccc2)C3)ccc1OCc1ccccc1 (stereo unspecified)	1.76 µM	5.94 µM	1.71 µM	11.1 µM	0.328 µM	7.54 µM	1.29 µM	3.96 µM	0.453 µM	2.11 µM	0.595 µM	2.24 µM	0.524 µM	2.29 µM	0.158 µM	0.95 µM	1.32 µM	7.09 µM	1.2 µM	3.08 µM
O=C(NCCN1CCOCC1)c1cc2c(Oc3ccc(NC(=O)C4(C(=O)Nc5ccc(F)cc5)CC4)cc3)ccnc2[nH]1	7.56 µM	41 µM	15.1 µM	> 100 µM	15.2 µM	47 µM	1.84 µM	19.8 µM	0.47 µM	15.5 µM	0.893 µM	9.64 µM	1.39 µM	16.5 µM	3.22 µM	23.3 µM	9.19 µM	22.9 µM	5.13 µM	> 100 µM
COc1oc(C2C/C(=C/C(C)=C/C(C)=C/C(C)=C/c3ccc([N+](=O)[O-])cc3)CO2)c(C)c(=O)c1C (stereo unspecified)		> 45.6 µM		> 63.5 µM		8.13 µM		95.1 µM		34.7 µM		> 57.5 µM		33.4 µM		42.4 µM		> 75.8 µM		> 42.2 µM
O=C(Nc1c[nH]c(=O)[nH]c1=O)Oc1ccccc1		> 100 µM		> 100 µM		33.5 µM		> 100 µM		> 100 µM		> 100 µM		> 100 µM		> 100 µM		> 100 µM		> 100 µM
CCCCCCCCCC(=O)Oc1ccc(/C(=C(/C)c2ccccc2)c2ccc(OCCN3CCCC3)cc2)cc1	8.86 µM	16.7 µM	7.36 µM	14.8 µM	9.24 µM	18.7 µM	6.95 µM	14.1 µM	7.93 µM	15.1 µM	6.56 µM	13.5 µM	8.7 µM	16.9 µM	7.47 µM	14.1 µM	9.49 µM	18.1 µM	7.39 µM	14.9 µM
O=C1c2ccc3c4c(ccc(c24)C(=O)N1CCCCO)C(=O)N(CCCCO)C3=O	5.29 µM	32.5 µM	4.14 µM	17.8 µM	2.07 µM	7.43 µM	2.08 µM	10.7 µM	1.14 µM	4.84 µM	3.12 µM	13.6 µM	1.45 µM	3.87 µM	1.46 µM	2.86 µM	1.84 µM	6.88 µM	0.428 µM	1.72 µM
